Values quoted from earlier work, collected in patent US6350444B1, “Gene therapy for pulmonary edema using adenovirus vectors encoding Na,K-ATPase” (Edema Clearance, Inc., priority 1998, dated 2002).

Legend:
rat α1 subunit = rat α1 subunit (Rattus norvegicus, UniProt P06685); conditions: read-out: IC50 of ouabain

| SMILES | lung liquid clearance (isolated rat lungs) | IC50 (rat α1 subunit) |
| --- | --- | --- |
| N=C(N)NC(=O)c1nc(Cl)c(N)nc1N [amiloride] | decreased | – |
| C[C@@H]1O[C@@H](O[C@H]2C[C@@H](O)[C@]3(CO)[C@H]4[C@H](O)C[C@]5(C)[C@@H](C6=CC(=O)OC6)CC[C@]5(O)[C@@H]4CC[C@]3(O)C2)[C@H](O)[C@H](O)[C@H]1O [ouabain] | decreased | 1 mM |
